± gives the standard deviation of the averaged measurements.
What follows are test systems tested with COCC[n+]1c2c(n(Cc3cnccn3)c1C)C(=O)c1ccccc1C2=O [YM155] (assay: surviving fraction relative to DMSO-only wells; higher = less growth inhibition). Conditions: 10 nM; exposure time: 5 days.
Method in brief: (§1)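 Five days of continuous inhibitor exposure, at 0.5, 1, 5, 10, 50, 100, 500 and 1000 nM, followed a 24-hour period after log-phase tumour cell lines were seeded at 250–500 cells per well in 384-well plates. Surviving fraction was derived from CellTiter-Glo luminescence relative to the median of DMSO-only wells. Plates were read after 10 minutes at room temperature, and lines screened three times were kept only if replicate Pearson r >0.7 and median Z' >0.3.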

Test System	surviving fraction
G292 BONE	0.528 ± 0.037

Same assay, conditions: 50 nM; exposure time: 5 days

Test System	surviving fraction
SCC36 HEADNECK	0.261 ± 0.056
JIMT1 BREAST	0.0545 ± 0.0027
CAL72 BONE	0.058 ± 0.005
G292 BONE	0.251 ± 0.0065

Same assay, conditions: 100 nM; exposure time: 5 days

Test System	surviving fraction
SCC36 HEADNECK	0.105 ± 0.0036
JIMT1 BREAST	0.0323 ± 0.0027
CAL72 BONE	0.0473 ± 0.0047
G292 BONE	0.194 ± 0.007

Same assay, conditions: 500 nM; exposure time: 5 days

Test System	surviving fraction
SCC36 HEADNECK	0.04 ± 0.0056
JIMT1 BREAST	0.0275 ± 0.0013
CAL72 BONE	0.0423 ± 0.0029
G292 BONE	0.0688 ± 0.0042

Same assay, conditions: 1000 nM; exposure time: 5 days

Test System	surviving fraction
SCC36 HEADNECK	0.0387 ± 0.0015
JIMT1 BREAST	0.0318 ± 0.0055
CAL72 BONE	0.054 ± 0.0044
G292 BONE	0.0473 ± 0.0024

The test systems below were run with CC[C@@]1(O)C(=O)OCc2c1cc1n(c2=O)Cc2cc3ccccc3nc2-1 [CAMPTOTHECIN] in the same assay as above. Conditions: 0.5 nM; exposure time: 5 days.
Method in brief: as §1

Test System	surviving fraction
SCC36 HEADNECK	0.804 ± 0.15
JIMT1 BREAST	0.894 ± 0.018
CAL72 BONE	0.985 ± 0.029
G292 BONE	0.901 ± 0.015

Same assay, conditions: 1 nM; exposure time: 5 days

Test System	surviving fraction
SCC36 HEADNECK	0.703 ± 0.13
JIMT1 BREAST	0.893 ± 0.058
CAL72 BONE	0.991 ± 0.021
G292 BONE	0.874 ± 0.047

Same assay, conditions: 5 nM; exposure time: 5 days

Test System	surviving fraction
SCC36 HEADNECK	0.704 ± 0.14
JIMT1 BREAST	0.8377 ± 0.0059
CAL72 BONE	0.955 ± 0.034
G292 BONE	0.591 ± 0.037

Same assay, conditions: 10 nM; exposure time: 5 days

Test System	surviving fraction
SCC36 HEADNECK	0.495 ± 0.018
JIMT1 BREAST	0.655 ± 0.048
CAL72 BONE	0.762 ± 0.12
G292 BONE	0.383 ± 0.014

Same assay, conditions: 50 nM; exposure time: 5 days

Test System	surviving fraction
SCC36 HEADNECK	0.332 ± 0.012
JIMT1 BREAST	0.433 ± 0.024
CAL72 BONE	0.18 ± 0.022
G292 BONE	0.292 ± 0.0027

Same assay, conditions: 100 nM; exposure time: 5 days

Test System	surviving fraction
SCC36 HEADNECK	0.156 ± 0.0031
JIMT1 BREAST	0.394 ± 0.034
CAL72 BONE	0.118 ± 0.011
G292 BONE	0.18 ± 0.012

Same assay, conditions: 500 nM; exposure time: 5 days

Test System	surviving fraction
SCC36 HEADNECK	0.0463 ± 0.012
JIMT1 BREAST	0.066 ± 0.0031
CAL72 BONE	0.0517 ± 0.0015
G292 BONE	0.121 ± 0.0073

Same assay, conditions: 1000 nM; exposure time: 5 days

Test System	surviving fraction
SCC36 HEADNECK	0.0413 ± 0.004
JIMT1 BREAST	0.0517 ± 0.0014
CAL72 BONE	0.0597 ± 0.0011
G292 BONE	0.102 ± 0.0078

The test systems below were run with CC(=O)O[C@H]1C(=O)[C@@]2(C)[C@H]([C@H](OC(=O)c3ccccc3)[C@]3(O)C[C@H](OC(=O)[C@H](O)[C@@H](NC(=O)c4ccccc4)c4ccccc4)C(C)=C1C3(C)C)[C@]1(OC(C)=O)CO[C@@H]1C[C@@H]2O [PACLITAXEL] in the same assay as above. Conditions: 0.5 nM; exposure time: 5 days.
Method in brief: as §1

Test System	surviving fraction
SCC36 HEADNECK	0.966 ± 0.035
JIMT1 BREAST	0.618 ± 0.028
CAL72 BONE	0.876 ± 0.061
G292 BONE	0.727 ± 0.028

Same assay, conditions: 1 nM; exposure time: 5 days

Test System	surviving fraction
SCC36 HEADNECK	0.8 ± 0.0036
JIMT1 BREAST	0.293 ± 0.024
CAL72 BONE	0.459 ± 0.078
G292 BONE	0.472 ± 0.021

Same assay, conditions: 5 nM; exposure time: 5 days

Test System	surviving fraction
SCC36 HEADNECK	0.246 ± 0.041
JIMT1 BREAST	0.16 ± 0.0026
CAL72 BONE	0.386 ± 0.047
G292 BONE	0.196 ± 0.0038

Same assay, conditions: 10 nM; exposure time: 5 days

Test System	surviving fraction
SCC36 HEADNECK	0.154 ± 0.042
JIMT1 BREAST	0.119 ± 0.011
CAL72 BONE	0.297 ± 0.032
G292 BONE	0.161 ± 0.0064

Same assay, conditions: 50 nM; exposure time: 5 days

Test System	surviving fraction
SCC36 HEADNECK	0.103 ± 0.007
JIMT1 BREAST	0.0905 ± 0.0083
CAL72 BONE	0.191 ± 0.018
G292 BONE	0.148 ± 0.0067

Same assay, conditions: 100 nM; exposure time: 5 days

Test System	surviving fraction
SCC36 HEADNECK	0.109 ± 0.026
JIMT1 BREAST	0.0907 ± 0.0037
CAL72 BONE	0.135 ± 0.031
G292 BONE	0.147 ± 0.0013

Same assay, conditions: 500 nM; exposure time: 5 days

Test System	surviving fraction
SCC36 HEADNECK	0.108 ± 0.006
JIMT1 BREAST	0.0727 ± 0.008
CAL72 BONE	0.112 ± 0.0096
G292 BONE	0.1228 ± 0.00076

Same assay, conditions: 1000 nM; exposure time: 5 days

Test System	surviving fraction
SCC36 HEADNECK	0.114 ± 0.017
JIMT1 BREAST	0.0808 ± 0.0025
CAL72 BONE	0.123 ± 0.025
G292 BONE	0.128 ± 0.0067
